Test results taken from patent US11547725B2, “Anti-cancer T cells and their preparation using coenzyme A” (UNIVERSITY HEALTH NETWORK, priority 2017, dated 2023).

Assays:
CD8+ T cells [1] = experiment: Tc subset polarization of CD8+ T cells, intracellular cytokine staining by flow cytometry; type: cell-based, mouse; conditions: for Tc22 polarization: CD8+ T cells activated three days in Tc22 conditions, compound vs vehicle (oligomycin 100 nm, etomoxir 40 μm, pantothenate 8 mM, CoA 2.5-3.5 mM)
CD8+ T cells [2] = experiment: ATP quantification (commercial kit); type: cell-based, mouse; conditions: CD8+ T cells activated with CoA vs vehicle
Description: (§1) Seahorse was performed as previously described (11). ATP quantification was performed on day 3 polarized T cells using a commercial kit (Sigma) according to the recommended protocol. For SITA, CD8+ T cells activated for three days in the presence of vehicle or CoA were harvested, washed and incubated for 2.5 hours with U-13C6-glucose (Cambridge Isotopes). Cells were then washed and pellet was frozen in methanol. The cells were thawed on ice and lysed by sonication at 4° C. using a Diagenode Bioruptor (30s. on, 30s off, 5 mins). The resulting mixtures were spun down (15 mins 13000 rpm 4° C.) to remove the cellular debris, the resulting supernatants were transferred to clean microfuge tubes and the solvent was removed using a speed-vac at room temperature. The resulting pellets were stored at −70° C. until derivitization. The pellets were solubilized in 30 μL of pyridine containing methoxyamine(10 mg/mL; Sigma) and each sample was spiked with 1 μL of myristic acid-D27 (750 ng/mL in pyridine; Cambridge Isotopes). The samples were vortexed, sonicated, transferred to autoinjection vials and incubated at room temperature for 30 mins. Subsequent to this, 70 uL of N-tert-Butyldimethylsilyl-N-methyltrifluoroacetamide (MTBSTFA; Sigma) was added and the samples were incubated at 70° C. for 30 mins. GC/MS analysis was performed using an Agilent 5975C GC/MS equipped with a DB-5MS+DG capillary column. […]

HIF-1α = experiment: Western blotting for HIF-1a; type: cell-based, mouse; conditions: CD8+ T cells activated with vehicle or CoA
Description: (§2) Antibodies used for flow cytometry were purchased from eBioscience, Biolegend and BD Pharmingen. Antibody clones used were: CD4 (RM-45), CD8 (53-6.7), IL-22 (IL22JOP and Poly5164), IL-17 (eBio17B7), IFN-γ (XMG1.2) and TNF-α (MP6-XT22). Antibodies used for western blotting were HIF-1a (Caymen Chem-10006421) and β-actin (Sigma—A2066). For intracellular cytokine staining, cells were re-stimulated for 5-6 hours with Cell-Stimulation Cocktail (eBioscience) in the presence of Brefeldin A (eBioscience), followed by staining using Cytofix/Cytoperm (BD Pharmingen). Flow cytometry data was acquired on a FACSCanto II (BD) and analyzed using FlowJo software (Tree Star). Cytokines were quantified in the supernatant using LEGENDPLEX cytometric bead array (Biolegend) or by ELISA (eBioscience)

CD8+ T cells [3] = experiment: RNA sequencing of CD8+ T cells activated with CoA or vehicle; type: cell-based, mouse; conditions: RNA seq
Description: RNA was extracted from CD8+ T cells activated for three days in the presence of CoA or Vehicle using Qiagen RNEasy kit. Libraries were prepared using TruSeq Stranded Total RNA kit. Two hundred nanograms from RNA samples were ribosomal RNA depleted using Ribo-zero Gold rRNA beads, following purification the RNA was fragmented. The cleaved RNA fragments were copied into first strand cDNA using reverse transcriptase and random primers. This is followed by second strand cDNA synthesis using RNase H and DNA Polymerase I. A single “A” based were added and adapter ligated followed by purification and enrichment with PCR to create cDNA libraries. Final cDNA libraries were size validated using Agilent Bioanalyzer and concentration validated by qPCR. All libraries were normalized to 10 nM and pooled together. 10 pM of pooled libraries were loaded onto Illumina cBot for cluster generation. Clustered flow cell was then sequenced Pair-end 100 cycles V3 using Illumina HighSeq 2000 to achieve ˜30 million reads per sample.
The Tophat (2.0.8b) software suite with Bowtie (2.0.5) was used to align reads to the Mus musculus mm10 mouse genome (igenome). […] The cufflinks (2.2.1) software suite was used to quantify alignments. Cuffquant was used to quantify individual sample alignments and Cuffnorm was used to normalize quantified data for each group of biological replicates. […]

CD8+ T cells [4] = experiment: Seahorse OCR / ECAR; type: cell-based, mouse
Description: Seahorse was performed as previously described (11). ATP quantification was performed on day 3 polarized T cells using a commercial kit (Sigma) according to the recommended protocol. For SITA, CD8+ T cells activated for three days in the presence of vehicle or CoA were harvested, washed and incubated for 2.5 hours with U-13C6-glucose (Cambridge Isotopes). Cells were then washed and pellet was frozen in methanol. The cells were thawed on ice and lysed by sonication at 4° C. using a Diagenode Bioruptor (30s. on, 30s off, 5 mins). The resulting mixtures were spun down (15 mins 13000 rpm 4° C.) to remove the cellular debris, the resulting supernatants were transferred to clean microfuge tubes and the solvent was removed using a speed-vac at room temperature. The resulting pellets were stored at −70° C. until derivitization. The pellets were solubilized in 30 μL of pyridine containing methoxyamine(10 mg/mL; Sigma) and each sample was spiked with 1 μL of myristic acid-D27 (750 ng/mL in pyridine; Cambridge Isotopes). The samples were vortexed, sonicated, transferred to autoinjection vials and incubated at room temperature for 30 mins. Subsequent to this, 70 uL of N-tert-Butyldimethylsilyl-N-methyltrifluoroacetamide (MTBSTFA; Sigma) was added and the samples were incubated at 70° C. for 30 mins. GC/MS analysis was performed using an Agilent 5975C GC/MS equipped with a DB-5MS+DG capillary column. 1 uL of sample was injected onto the GC column in splitless mode with an inlet temperature of 280° C. and the data was collected by electron impact set at 70 eV. Helium was used as the carrier gas with a flow rate of 1.55 mL/min. The quadrupole was set at 150° C. and the GC/MS interface at 285° C. The oven program for all metabolite analyses started at 60° C. held for 1 min, then increasing at a rate of 10° C./min until 320° C. Bake-out was at 320° C. for 10 mins and the sample data were acquired in scan mode (1-600 m/z).
To further characterize these observed differences in each Tc subset, we analyzed their respective utilization of glycolysis versus OXPHOS using the Seahorse Bioanalyzer. This method allows the concurrent measurement of the oxygen consumption rate (OCR—indicative of OXPHOS) and the extracellular acidification rate (ECAR—indicative of glycolysis) in real-time. […] Consistent with the increased ATP yield of oxidative metabolism compared to glycolysis, Tc22s had the highest amounts of intracellular ATP (FIG. 1F). We also observed metabolites involved in the TCA cycle and OXPHOS, particularly succinate, to be increased in Tc22s (FIG. 6).

[5] = test system: dextran sulfate sodium (DSS) colitis; experiment: DSS colitis model; type: in vivo, mouse; conditions: 2.5% DSS in water 5 days; oral CoA 0.5 mg/mL in drinking water vs vehicle
Description: For DSS-colitis experiments, 8-12 week old female C57BL/6 mice were randomized into different cohorts and colitis was induced using 2.5% DSS (MP Bio) added to the drinking water of mice for 5 consecutive days. CoA (0.5 mg/mL) or vehicle control was added to the drinking water on day 0. On day 5, mice were switched to fresh water without any DSS added, supplemented with either CoA (0.5 mg/mL) or vehicle control.

CD4+ T cells [6] = experiment: Th22 polarization of SMARTA CD4+ T cells, cytokine expression; type: cell-based, mouse; conditions: CoA vs vehicle, non-polarizing or Th22 conditions
CD8+ T cells [7] = experiment: Cytokines quantified in supernatant (cytometric bead array or ELISA); type: cell-based, mouse; conditions: three day culture, CD8+ T cells activated with vehicle or CoA
Description: as §2
Oligomycin, Etomoxir, Diethyl succinate and Calcium-D Pantothenate were purchased from Sigma, and Coenzyme A Trilithium Salt (CoA) and HIF-inhibitor (CAS 934593-90-5) were purchased from EMD Millipore. Oligomycin (100 nm) was added to CD8+ T cells 24 hours after the start of activation, while Etomoxir (40 μm), Pantothenate (8 mM), Diethyl Succinate (14 mM) and HIF-Inhibitor (40 μM) were added at the start of activation. CoA was added at the start of activation unless otherwise indicated at a concentration of 2.5-3.5 mM depending on the lot.

CD8+ T cells [8] = experiment: Stable isotope tracer analysis (SITA) with 13C-glucose, GC/MS; type: cell-based, mouse; conditions: three days CoA or vehicle
Description: as §1, with “mins.” for “mins. GC/MS analysis was performed using an Agilent 5975C GC/MS equipped with a DB-5MS+DG capillary column.”
The data was analyzed using Agilent MSD-Chemstation interfaced to the NIST11 library. […]

CD4+ T cells [9] = experiment: OCR, OCR:ECAR ratio and ATP production in CD4+ T cells; type: cell-based, mouse; conditions: CD4+ T cells activated with vehicle or CoA
Description: as §1

human CD8+ cells = experiment: Human T cell Tc22 polarization, intracellular cytokines by flow cytometry; type: cell-based; conditions: human naive T cells, Tc22 conditions, pantothenate 8 mM on day 0, five days
Description: Peripheral blood mononuclear cells were obtained from healthy donors following institutional review board approval. Written informed consent was obtained from all donors who provided the samples. PBMCs were magnetically sorted for naïve T cells (Miltenyi Biotec) and seeded into a 96-well plate previously coated with 5 μg/mL anti-CD3 (eBioscience, clone OKT3). To induce Tc22 polarization, the following antibodies and cytokines were added to culture: 1 μg/mL anti-CD28 (eBioscience, clone CD28.2), 5 μg/mL anti-IFNγ (BioLegend, clone B27), 5 μg/mL anti-IL-4 (BioLegend, clone 8D4-8), 5 μg/mL anti-TGFβ (eBioscience, clone 1D11.16.8), 20 ng/mL IL-6, 10 ng/mL IL-21, 10 ng/mL IL-23, 40 ng/mL TNF-α (All from BioLegend) and 2 ng/mL FICZ. Pantothenate (8 mM) or vehicle control was also added on day 0. Five days later, cells were stimulated with PMA/ionomycin+Brefeldin for 5-6 hours. Cells were then stained and analyzed for intracellular cytokines by flow cytometry.

[10] = CD8+ T cells activated with CoA vs vehicle
[11] = re-stimulated 48 hours with anti-CD3 with vehicle or CoA

## CCOC(=O)[C@@]1(CCCCCCOc2ccc(Cl)cc2)CO1 [etomoxir, Etomoxir]
CD8+ T cells [1]
  Tc22 polarization: had no effect on Tc22 polarization

## CCOC(=O)CCC(=O)OCC [succinate, Diethyl succinate]
CD8+ T cells [1]; CD8+ T cells activated three days with exogenous succinate (diethyl succinate 14 mM)
  IL-22 production: enhanced IL-22 production

## CC(C)(COP(=O)(O)OP(=O)(O)OC[C@H]1O[C@@H](n2cnc3c(N)ncnc32)[C@H](O)[C@@H]1OP(=O)(O)O)[C@@H](O)C(=O)NCCC(=O)NCCS.[Li].[Li].[Li] [CoA, Coenzyme A Trilithium Salt]
CD8+ T cells [2]
  Intracellular levels of ATP: increased intracellular levels of ATP
HIF-1α
  Levels of HIF-1α: substantially increased levels of HIF-1α
CD8+ T cells [3]; CoA alone vs vehicle, three days
  Expression of genes up-regulated by Tc22 polarizing cytokines (Tc22 signature): strongly up-regulated
CD8+ T cells [3]; CoA vs vehicle
  Gene expression altered by treatment (GO term analysis): primarily altered the expression of immune system genes and not metabolic genes
CD8+ T cells [4]; [10]
  Basal ECAR: lower basal ECAR
  Basal OCR: higher basal OCR
  OCR:ECAR ratio: high OCR:ECAR ratio
CD8+ T cells [4]; [11]
  Oxidative phenotype (OCR, ECAR, OCR:ECAR, ATP) in previously activated CD8+ T cells: promote an oxidative phenotype
CD8+ T cells [1]
  Tc22 polarization: greatly enhanced polarization
CD8+ T cells [1]; CD8+ T cells activated with CoA alone, absence of polarizing cytokines
  Cytokine expression in non-polarizing conditions: skewed primarily towards an IL-22^+ IL-17^− IFNγ^− population
CD8+ T cells [1]; CoA with anti IL-6 (10 ug/mL), three days
  Tc22 induction in presence of IL-6 neutralizing antibody: retained the ability to induce Tc22s
CD8+ T cells [1]; platebound anti-CD3 and soluble anti CD28, three days, CoA added 24 hours after start, non-polarizing or Tc22 conditions
  Tc22 polarization in APC-free system: induced and enhanced Tc22 polarization
CD8+ T cells [1]; [11]
  IL-22 production in previously activated CD8+ T cells: able to induce IL-22 production
[5]
  Disease severity (% weight loss): decrease in disease severity
CD4+ T cells [6]
  Th22 polarization: induced and enhanced Th22 polarization
CD8+ T cells [7]
  Cytokine profile in supernatants: primarily up-regulate IL-22
CD8+ T cells [8]
  Total intracellular pools of TCA intermediates: increased total intracellular pools of many of the TCA intermediates
CD8+ T cells [8]; then 2.5 hours 13C glucose
  Incorporation of 13C label into TCA metabolites: enhanced incorporation of the ^13C label into TCA metabolites
CD4+ T cells [9]
  ATP production in CD4+ T cells: enhanced ATP production
  Metabolic shift (OCR, OCR:ECAR ratio) in CD4+ T cells: metabolic shift towards OXPHOS

## CC[C@H]1/C=C/C=C/C[C@@H](C)[C@H](O)[C@@](C)(O)C(=O)[C@@H](C)[C@H](O)[C@@H](C)C(=O)[C@@H](C)[C@H](O)[C@@H](C)/C=C/C(=O)O[C@@H]2[C@H](C)[C@H](CC1)O[C@]1(CC[C@H](C)[C@H](C[C@@H](C)O)O1)[C@H]2C [oligomycin, Oligomycin]
CD8+ T cells [1]
  Tc22 polarization: decrease in Tc22 polarization
CD8+ T cells [1]; Tc1 conditions, oligomycin 100 nm added 24 hours after start of activation
  Tc1 polarization: did enhance Tc1 polarization
CD8+ T cells [1]; Tc17 conditions, oligomycin 100 nm added 24 hours after start of activation
  Tc17 polarization: did not affect Tc17 polarization

## CC(C)(CO)[C@@H](O)C(=O)NCCC(=O)O [pantothenate, Calcium-D Pantothenate]
Human CD8+ cells
  Tc22 polarization, human CD8+ cells: enhanced polarization
CD8+ T cells [1]
  Tc22 polarization: enhanced polarization
